Some test systems named below: CAKI-1 renal; IGROV1 ovarian; MOLT-4 leukemia; NCI-H460 lung; OVCAR-4 ovarian; RXF 393 renal; SK-MEL-28 melanoma; SNB-75 CNS; U251 CNS; UACC-62 melanoma.
Common to all, as to assay: growth of human tumour cells (NCI), 48 h

In PubChem BioAssay (NCI) one finds TGI and GI50 data, which are given here for nine compounds.

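All cell lines were grown in 96-well plates and treated with compound for 48 hours. GI50 is the concentration that inhibits growth by half. TGI: total growth inhibition.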

On to `CN1CCN=C1c1nnn(-c2ccc([N+](=O)[O-])cc2)c1-c1ccccc1`, for which the TGI in the assay on CAKI-1 renal, in the assay on IGROV1 ovarian, in the assay with MOLT-4 leukemia, in the assay on NCI-H460 lung, with OVCAR-4 ovarian and in the assay on RXF 393 renal was above 100 µM in each case. Further, the TGI in the assay on SK-MEL-28 melanoma, in the assay with SNB-75 CNS, with U251 CNS and in the assay with UACC-62 melanoma was above 100 µM throughout.
On to `CC1=NN(c2ccccc2)C(=O)C12[C@H](c1ccccc1)C2(C#N)C#N` (stereo not given in full), for which the TGI turned out to be 16.3 µM in the assay with CAKI-1 renal; 28.1 µM with IGROV1 ovarian; 3.1 µM in the assay on MOLT-4 leukemia; 41.5 µM in the assay on NCI-H460 lung; 17.5 µM in the assay with OVCAR-4 ovarian; 14.6 µM with RXF 393 renal. The TGI in the assay on SK-MEL-28 melanoma is 9.6 µM; in the assay with SNB-75 CNS it was 19.3 µM; with U251 CNS it was 29.6 µM; in the assay on UACC-62 melanoma, 12.4 µM.
As to `COc1c(OC)c(OC)c2c(=O)cc(-c3ccc(OC(C)C)cc3)oc2c1OC`, the TGI in the assay with CAKI-1 renal is 35.1 µM; with IGROV1 ovarian it was above 56.8 µM; with MOLT-4 leukemia, 23.8 µM; with NCI-H460 lung, above 56.6 µM; in the assay on OVCAR-4 ovarian it was above 49.2 µM; with RXF 393 renal it was above 48.7 µM. In addition, the TGI in the assay on SK-MEL-28 melanoma was above 55.4 µM; in the assay with SNB-75 CNS, above 49.9 µM; in the assay on U251 CNS, above 52 µM; with UACC-62 melanoma it was 32 µM.
As to `Cc1nn(C)c2ncnc(N/N=C/c3cccc(O)c3O)c12`, the GI50 in the assay with CAKI-1 renal is 1.31 µM; in the assay on IGROV1 ovarian, 1.78 µM; in the assay on MOLT-4 leukemia it was 0.323 µM; in the assay with NCI-H460 lung it was 0.431 µM; in the assay on OVCAR-4 ovarian, 0.378 µM; with RXF 393 renal, 0.513 µM. The GI50 in the assay on SK-MEL-28 melanoma was 0.455 µM; in the assay on SNB-75 CNS, 0.548 µM; in the assay on U251 CNS, 0.513 µM; in the assay with UACC-62 melanoma, 1.69 µM. For the same compound, the TGI was 16.5 µM in the assay on CAKI-1 renal; above 30.4 µM with IGROV1 ovarian; 28.7 µM in the assay with MOLT-4 leukemia; above 39.7 µM in the assay with NCI-H460 lung; 23.4 µM in the assay with OVCAR-4 ovarian; above 27.7 µM with RXF 393 renal. The TGI with SK-MEL-28 melanoma was above 100 µM; with SNB-75 CNS, 6.8 µM; in the assay on U251 CNS it was above 100 µM; in the assay on UACC-62 melanoma, 5.98 µM.
On to `CCOC(=O)c1sc2c(C(=O)OCC)n3cc(C)cc(C)c3c2c1O`, for which the TGI in the assay on CAKI-1 renal, in the assay on IGROV1 ovarian, in the assay with MOLT-4 leukemia, in the assay on NCI-H460 lung, with OVCAR-4 ovarian and with RXF 393 renal was above 100 µM each time. For the same compound, the TGI in the assay on SK-MEL-28 melanoma, in the assay on SNB-75 CNS, in the assay with U251 CNS and in the assay on UACC-62 melanoma was above 100 µM in each case.
Turning to `CCCCCCCCCCCNC=O`, the TGI was above 100 µM in the assay with CAKI-1 renal; above 100 µM in the assay on IGROV1 ovarian; 60.6 µM in the assay with MOLT-4 leukemia; above 100 µM in the assay on NCI-H460 lung; above 100 µM with OVCAR-4 ovarian; above 100 µM in the assay with RXF 393 renal. For the same compound, the TGI in the assay with SK-MEL-28 melanoma, in the assay with SNB-75 CNS, with U251 CNS and with UACC-62 melanoma was above 100 µM each time.
Regarding `COC(=O)C(=O)C(C(=O)C(=O)Nc1ccccc1[N+](=O)[O-])c1nc2ccc([N+](=O)[O-])cc2[nH]c1=O` (stereo not given), the TGI in the assay on CAKI-1 renal, in the assay on IGROV1 ovarian, in the assay on MOLT-4 leukemia, in the assay on NCI-H460 lung, with OVCAR-4 ovarian and in the assay on RXF 393 renal was above 100 µM throughout. Further, the TGI in the assay on SK-MEL-28 melanoma, with SNB-75 CNS, with U251 CNS and with UACC-62 melanoma was above 100 µM throughout.
Regarding `CC(C)=Cc1cc(C)c2ccc(C)c3c2c1C(C)=C(O)C3=O`, the GI50 in the assay on CAKI-1 renal is 23.8 µM; in the assay with IGROV1 ovarian, 21 µM; in the assay with MOLT-4 leukemia it was 1.19 µM; with NCI-H460 lung, 51.2 µM; in the assay on OVCAR-4 ovarian, above 100 µM; with RXF 393 renal it was 41.9 µM. Also, the GI50 in the assay on SK-MEL-28 melanoma was 0.933 µM; in the assay with SNB-75 CNS, above 100 µM; in the assay with U251 CNS it was 17.9 µM; with UACC-62 melanoma, 19.8 µM. The TGI is 65.9 µM in the assay on CAKI-1 renal; 71.6 µM in the assay with IGROV1 ovarian; 6.05 µM in the assay on MOLT-4 leukemia; above 100 µM in the assay with NCI-H460 lung; above 100 µM in the assay with OVCAR-4 ovarian; above 100 µM in the assay with RXF 393 renal. Moreover, the TGI in the assay with SK-MEL-28 melanoma is above 100 µM; in the assay on SNB-75 CNS, above 100 µM; in the assay on U251 CNS, 56.4 µM; with UACC-62 melanoma, 46.7 µM.
For `C=CCC12CC(=O)CCC1c1ccc(OC)cc1C2=O` (stereo not given), the TGI with CAKI-1 renal, with IGROV1 ovarian, with MOLT-4 leukemia, with NCI-H460 lung, with OVCAR-4 ovarian and with RXF 393 renal was above 100 µM each time. Further, the TGI with SK-MEL-28 melanoma, in the assay on SNB-75 CNS, in the assay on U251 CNS and with UACC-62 melanoma was above 100 µM each time.
